One test deals with T1, PKB-PIF (Homo sapiens, UniProt P31751).
T1 construct: PIF (fusion partner); made in house
In words: Measurement of PKB kinase inhibitory activity (IC50), 33P-ATP filter plate assay. Type of test: biochemical. The settings on record: 0.6 nM enzyme, 30 μM ATP/γ33P-ATP, 25 μM AKTide-2T substrate, 20 minutes. The source says:
The inhibition of protein kinase B (PKB) activity by compounds can be determined determined essentially as described by Andjelkovic et al. (Mol. Cell. Biol. 19, 5061-5072 (1999)) but using a fusion protein described as PKB-PIF and described in full by Yang et al (Nature Structural Biology 9, 940-944 (2002)). The protein is purified and activated with PDK1 as described by Yang et al. The peptide AKTide-2T (H-A-R-K-R-E-R-T-Y-S-F-G-H-H-A-OH) obtained from Calbiochem (#123900) is used as a substrate. A final concentration of 0.6 nM enzyme is used in a buffer that includes 20 mM MOPS pH 7.2, 30 μM ATP/γ^33P-ATP and 25 μM substrate. Compounds are added in DMSO solution to a final DMSO concentration of 2.5%. The reaction is allowed to proceed for 20 minutes before addition of excess orthophosphoric acid to quench activity. The reaction mixture is transferred to a phosphocellulose filter plate where the peptide binds and the unused ATP is washed away. After washing, scintillant is added and the incorporated activity measured by scintillation counting.
The % inhibition of the PKB activity is calculated and plotted in order to determine the concentration of test compound required to inhibit 50% of the PKB activity (IC50).

The target of another test is T2, PKA catalytic domain (Homo sapiens, UniProt P17612).
T2 construct: using the PKA catalytic domain from Upstate Biotechnology (#14-440); purchased Upstate Biotechnology 14-440
In words: Measurement of PKA kinase inhibitory activity (IC50), 33P-ATP filter plate assay. The settings on record: 1 nM enzyme, 40 μM ATP/γ33P-ATP, 5 μM substrate […], 20 minutes. Type of test: biochemical. The method, then: Compounds of the invention can be tested for PK inhibitory activity using the PKA catalytic domain from Upstate Biotechnology (#14-440) and the 9 residue PKA specific peptide ([…]), also from Upstate Biotechnology (#12-257), as the substrate. A final concentration of 1 nM enzyme is used in a buffer that includes 20 mM MOPS pH 7.2, 40 μM ATP/γ^33P-ATP and 5 μM substrate. Compounds are added in dimethylsulphoxide (DMSO) solution to a final DMSO concentration of 2.5%. The reaction is allowed to proceed for 20 minutes before addition of excess orthophosphoric acid to quench activity. Unincorporated γ^33P-ATP is then separated from phosphorylated proteins on a Millipore MAPH filter plate. The plates are washed, scintillant is added and the plates are then subjected to counting on a Packard Topcount.
The % inhibition of the PKA activity is calculated and plotted in order to determine the concentration of test compound required to inhibit 50% of the […] activity (IC50).

Here are results for eleven compounds from patent publication US20090124610A1, “PHARMACEUTICAL COMPOUNDS” (priority 2006, published 2009).

Where a name gives a salt, the structure may show the parent alone.

T1 sequence (P31751 with tags, fused parts or gaps limits assumed): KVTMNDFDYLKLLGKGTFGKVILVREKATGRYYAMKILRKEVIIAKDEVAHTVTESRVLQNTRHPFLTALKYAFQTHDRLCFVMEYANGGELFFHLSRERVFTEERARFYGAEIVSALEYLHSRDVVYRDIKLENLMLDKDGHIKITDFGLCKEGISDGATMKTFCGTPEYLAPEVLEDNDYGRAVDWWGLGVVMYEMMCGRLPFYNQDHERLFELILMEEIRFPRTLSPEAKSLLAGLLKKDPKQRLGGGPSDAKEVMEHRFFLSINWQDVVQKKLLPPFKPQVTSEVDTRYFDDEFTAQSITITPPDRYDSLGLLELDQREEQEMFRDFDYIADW

Turning to `CNCC(c1ccc(Cl)cc1)c1ccc(-c2ncnc3ccsc23)cc1` (stereo not shown) [Example 1, [2-(4-Chloro-phenyl)-2-(4-thieno[3,2-d]-pyrimidin-4-yl-phenyl)-ethyl]-methyl-amine bis-trifluoroacetate], the IC50 against PKB-PIF and against PKA catalytic domain was under 1000 nM throughout.
In turn, `NCCC(c1ccc(Cl)cc1)c1ccc(-c2ncnc3ccsc23)cc1` (stereo not shown) [Example 2, 3-(4-Chloro-phenyl)-3-(4-thieno[3,2-d]pyrimidin-4-yl-phenyl)-propylamine] came in with an IC50 on PKB-PIF of under 1000 nM.
Still for that read-out and setting: as for `NCC(c1ccc(Cl)cc1)N1CCN(c2ncnc3ccsc23)CC1` (stereo not shown) [Example 3, 2-(4-Chloro-phenyl)-2-(4-thieno[3,2-d]pyrimidin-4-yl-piperazin-1-yl)-ethylamine formate], the figure is under 1000 nM.
In the case of `Clc1ccc(C2(c3ccc(-c4ncnc5ccsc45)cc3)CCNCC2)cc1` [Example 4, 4-{4-[4-(4-Chloro-phenyl)-piperidin-4-yl]-phenyl}-thieno[3,2-d]pyrimidine formate], the IC50 against PKB-PIF and on PKA catalytic domain was under 1000 nM throughout.
On PKB-PIF, `NC1(C(=O)NCc2ccc(Cl)cc2)CCN(c2ncnc3ccsc23)CC1` [Example 5, 4-Amino-1-thieno[3,2-d]pyrimidin-4-yl-piperidine-4-carboxylic acid 4-chloro-benzylamide] yielded an IC50 of under 1000 nM.
On the same count and under the same terms, the figure for `NC1CCN(c2ncnc3ccsc23)CC1` [Example 6, 1-Thieno[3,2-d]pyrimidin-4-ylpiperidin-4-ylamine] is under 5000 nM.
Still for that read-out and setting: the figure for `NC1(Cc2ccc(Cl)cc2)CCN(c2ncnc3ccsc23)CC1` [Example 7, 4-(4-Chlorobenzyl)-1-thieno[3,2-d]pyrimidin-4-ylpiperidin-4-ylamine] is under 1000 nM; for `NC(c1ccc(Cl)cc1)C1CCN(c2ncnc3ccsc23)CC1` (stereo not shown) [Example 8, C-(4-Chlorophenyl)-C-(1-thieno[3,2-d]pyrimidin-4-ylpiperidin-4-yl)methylamine] it is under 1000 nM; for `NC1CCN(c2ncnc3sccc23)CC1` [Example 9, 1-Thieno[2,3-d]pyrimidin-4-ylpiperidin-4-ylamine] it is under 50000 nM.
Still for that read-out and setting: the figure for `NC1CCN(c2ccnc3c2C(=O)C(=O)N3)CC1` [Example 10, 4-(4-Amino-piperidin-1-yl)-1H-pyrrolo[2,3-b]pyridine-2,3-dione] is under 50000 nM; for `NC1(Cc2ccc(Cl)cc2)CCN(c2ccnc3c2OCC(=O)N3)CC1` [Example 11, 8-[4-Amino-4-(4-chloro-benzyl)-piperidin-1-yl]-4H-pyrido[3,2-b][1,4]oxazin-3-one] it is under 5000 nM.
